# Source: US9023852B2, “1, 2, 4-thiadiazol-5-ylpiperazine derivatives useful in the treatment of neurodegenerative diseases” (Remynd NV, priority 2011, dated 2015)
# pEC50: −log10 of the molar value.
# Assays:
# [1] = Microsomal stability assay (intrinsic clearance), human liver microsomes; type: in vitro ADME; conditions: human in vitro microsomes, first value of Hum/Rat pair
# Description: (§1) Microsomal Stability Testing—Assay Description
# (§2) The microsomal stability assay measures the rate of disappearance of a test compound from an incubation containing human or animal liver microsomes and metabolic cofactors (typically NADPH). The assay is primarily used for ranking the relative CYP-mediated metabolism propensities of compounds within a chemical series and as a guide to selecting sufficiently stable compounds for pharmacokinetics and pharmacodynamics experiments. [In addition to CYPs, microsomally located enzymes which also make use of NADPH (such as […]) and those which require no cofactors (such as carboxylesterases) are active.]
# (§3) Incubations are performed in 96-well deep-well plates with a final incubation volume of 600 μL. Incubations contain (finally) 1-2 μM test compound, 0.5 mg/mL liver microsomes (typically human, rat or mouse) and NADPH regenerating system. 50 μL aliquots are removed after 1, 3, 6, 9, 15, 25, 35 and 45 minutes and quenched in 150 μL acetonitrile containing internal standard. Samples are then cooled and centrifuged before analysis by LC-MS/MS.
# (§4) Log peak area ratio (test compound peak area/internal standard peak area) is plotted against incubation time and a linear fit made to the data with emphasis upon the initial rate of compound disappearance. The slope of the fit is then used to calculate the intrinsic clearance: Clint(μL/min/mg)=−slope(min^−1)*1000/[protein concentration (mg/mL)]
# [2] = Microsomal stability assay (intrinsic clearance), rat liver microsomes; type: in vitro ADME; conditions: rat in vitro microsomes, second value of Hum/Rat pair
# Description: as §1, §2, §3, §4
# M17—3TAU(P301L) cells = assay: Neuroblastoma tauopathy model: inhibition of TAU-induced cytotoxicity (LDH); type: cell-based; conditions: Homo sapiens, 168 h; inhibition of TAU-induced toxicity (LDH), 7 days differentiation with retinoic acid
# Outline: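 BE-M17 neuroblastoma cells stably expressing human TAU-P301L, differentiated with RA (2.5 μM in added medium) for 7 days at 37 °C with compounds at a range of concentrations. Cytotoxicity as supernatant LDH over total LDH (Cytotox 96); EC50 from dose-dependent inhibition curve.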
microsomal CLint [1] [µL/min/mg],microsomal CLint [2] [µL/min/mg],SMILES,pEC50 (M17—3TAU(P301L) cells)
19,48,"Cc1ccc(-c2nsc(N3CCN(Cc4ccc5c(c4)OCO5)CC3)n2)cc1 [Example 2, 1-Benzo[1,3]dioxol-5-ylmethyl-4-(3-p-tolyl-[1,2,4]thiadiazol-5-yl)-piperazine]",6.23
12,23,"Fc1cccc(-c2nsc(N3CCN(CCc4ccc(Cl)cc4)CC3)n2)c1 [Example 88, 1-[2-(4-Chloro-phenyl)-ethyl]-4-[3-(3-fluoro-phenyl)-[1,2,4]thiadiazol-5-yl]-piperazine]",6.92
–,–,"COc1cc(CCN2CCN(c3nc(-c4cnnc(C)c4)ns3)CC2)ccn1 [Example 176, 5-(4-(2-(2-methoxypyridin-4-yl)ethyl)piperazin-1-yl)-3-(6-methylpyridazin-4-yl)-1,2,4-thiadiazole]",7.71
–,–,"COc1ccc(CCN2CCN(c3nc(-c4cnnc(C)c4)ns3)CC2)cc1 [Example 177, 5-(4-(4-methoxyphenethyl)piperazin-1-yl)-3-(6-methylpyridazin-4-yl)-1,2,4-thiadiazole]",9.00
–,–,"Cc1ncc(-c2nsc(N3CCN(CCc4ccccc4)CC3)n2)cn1 [Example 178, 3-(2-methylpyrimidin-5-yl)-5-(4-phenethylpiperazin-1-yl)-1,2,4-thiadiazole]",7.88
–,–,"COc1ccc(CCN2CCN(c3nc(-c4cnc(C)nc4)ns3)CC2)cc1 [Example 179, 5-(4-(4-methoxyphenethyl)piperazin-1-yl)-3-(2-methylpyrimidin-5-yl)-1,2,4-thiadiazole]",8.47
–,–,"Cc1ncc(-c2nsc(N3CCN(CCc4ccc(Cl)cc4)CC3)n2)cn1 [Example 180, 5-(4-(4-chlorophenethyl)piperazin-1-yl)-3-(2-methylpyrimidin-5-yl)-1,2,4-thiadiazole]",6.89
–,–,"Cc1ncc(-c2nsc(N3CCN(CCc4ccc(F)cc4)CC3)n2)cn1 [Example 181, 5-(4-(4-fluorophenethyl)piperazin-1-yl)-3-(2-methylpyrimidin-5-yl)-1,2,4-thiadiazole]",7.50
–,–,"Cc1ncc(-c2nsc(N3CCN(CCc4ccc(F)c(F)c4)CC3)n2)cn1 [Example 182, 5-(4-(3,4-difluorophenethyl)piperazin-1-yl)-3-(2-methylpyrimidin-5-yl)-1,2,4-thiadiazole]",6.72
–,–,"COc1cc(CCN2CCN(c3nc(-c4cnc(C)nc4)ns3)CC2)ccn1 [Example 183, 5-(4-(2-(2-methoxypyridin-4-yl)ethyl)piperazin-1-yl)-3-(2-methylpyrimidin-5-yl)-1,2,4-thiadiazole]",6.82
39,482,Fc1ccc(Cc2nsc(N3CCN(Cc4ccc5c(c4)OCO5)CC3)n2)cc1 [reference compound],–
46,103,O=S(=O)(c1ccc(OC(F)(F)F)cc1)N1CCN(c2nc(Cc3ccc(F)cc3)ns2)CC1 [reference compound],–
